Measurements reported in PubChem BioAssay AID248 (DTP/NCI, 2004).
Values joined by “and” are separate entries in the source; they are usually repeats but may differ in a detail not shown here. Equal values may be shown once. Inconclusive results and toxic doses are left out. No stated cut-off is given here; in the data, active means T/C of 150% or more; inactive means T/C below 125%.

Test system: L1210 leukemia ip in BDF1 mice, survival T/C
Experiment: NCI In Vivo Anticancer Drug Screen. Data for tumor model L1210 Leukemia (intraperitoneal) in B6D2F1 (BDF1) mice
Details: endpoint: mean survival time, higher = longer survival
Outline: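 Read-out is survival time, reported as the treated-group measurement over the vehicle-control measurement.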

[1] = dose: 100.0 mg/kg/injection, schedule: Q04DX003 (ip), vehicle: saline
[2] = dose: 200.0 mg/kg/injection, schedule: Q04DX003 (ip), vehicle: saline
[3] = dose: 400.0 mg/kg/injection, schedule: Q04DX003 (ip), vehicle: saline
[4] = dose: 50.0 mg/kg/injection, schedule: Q01DX001 (ip), vehicle: saline
[5] = dose: 100.0 mg/kg/injection, schedule: Q01DX001 (ip), vehicle: saline
[6] = dose: 200.0 mg/kg/injection, schedule: Q01DX001 (ip), vehicle: saline
[7] = dose: 400.0 mg/kg/injection, schedule: Q01DX001 (ip), vehicle: saline
[8] = dose: 100.0 mg/kg/injection, schedule: Q01DX001 (ip), vehicle: Klucel (hydroxypropylcellulose) (HPC)
[9] = dose: 100.0 mg/kg/injection, schedule: Q04DX003 (ip), vehicle: Klucel (hydroxypropylcellulose) (HPC)
[10] = dose: 200.0 mg/kg/injection, schedule: Q01DX001 (ip), vehicle: Klucel (hydroxypropylcellulose) (HPC)
[11] = dose: 200.0 mg/kg/injection, schedule: Q04DX003 (ip), vehicle: Klucel (hydroxypropylcellulose) (HPC)
[12] = dose: 400.0 mg/kg/injection, schedule: Q01DX001 (ip), vehicle: Klucel (hydroxypropylcellulose) (HPC)
[13] = dose: 400.0 mg/kg/injection, schedule: Q04DX003 (ip), vehicle: Klucel (hydroxypropylcellulose) (HPC)
[14] = dose: 100.0 mg/kg/injection, schedule: Q01DX009 (ip), vehicle: Klucel (hydroxypropylcellulose) (HPC)
[15] = dose: 200.0 mg/kg/injection, schedule: Q01DX009 (ip), vehicle: Klucel (hydroxypropylcellulose) (HPC)
[16] = dose: 400.0 mg/kg/injection, schedule: Q01DX009 (ip), vehicle: Klucel (hydroxypropylcellulose) (HPC)
[17] = dose: 100.0 mg/kg/injection, schedule: Q01DX001 (ip), vehicle: carboxymethylcellulose (CMC)
[18] = dose: 200.0 mg/kg/injection, schedule: Q01DX001 (ip), vehicle: carboxymethylcellulose (CMC)
[19] = dose: 400.0 mg/kg/injection, schedule: Q01DX001 (ip), vehicle: carboxymethylcellulose (CMC)
[20] = dose: 50.0 mg/kg/injection, schedule: Q01DX001 (ip), vehicle: carboxymethylcellulose (CMC)
[21] = dose: 100.0 mg/kg/injection, schedule: Q04DX003 (ip), vehicle: saline sonified

Measured: T/C

CN1c2ccc3ccccc3c2Sc2ccc3ccccc3c21
inactive: dose: 100.0 mg/kg/injection, schedule: Q01DX009 (ip), vehicle: acetone 100 % of control | [1] 94 % of control | dose: 200.0 mg/kg/injection, schedule: Q01DX009 (ip), vehicle: acetone 100 % of control | [2] 95 % of control | dose: 400.0 mg/kg/injection, schedule: Q01DX009 (ip), vehicle: acetone 88 % of control | [3] 97 % of control

COB(OC)OC
inactive: [4] 98 % of control | [5] 95 % of control | [6] 101 % of control | [7] 95 % of control

COc1ccc(C(=S)N(C)c2ccccc2C)cc1
inactive: [8] 98 % of control | [9] 96 % of control | [10] 112 % of control | [11] 103 % of control | [12] 105 % of control | [13] 100 % of control

Cc1ccc(CN=C(N)CSS(=O)(=O)O)cc1C
inactive: dose: 100.0 mg/kg/injection, schedule: Q04DX002 (ip), vehicle: Klucel (hydroxypropylcellulose) (HPC) 97 % of control | dose: 200.0 mg/kg/injection, schedule: Q04DX002 (ip), vehicle: Klucel (hydroxypropylcellulose) (HPC) 101 % of control

NC(N)=N/N=C(/C=C/c1ccccc1)c1ccc(Cl)cc1
inactive: dose: 15.0 mg/kg/injection, schedule: Q01DX Z (ip), vehicle: carboxymethylcellulose (CMC) 92 % of control | dose: 30.0 mg/kg/injection, schedule: Q01DX Z (ip), vehicle: carboxymethylcellulose (CMC) 92 % of control | dose: 60.0 mg/kg/injection, schedule: Q01DX Z (ip), vehicle: carboxymethylcellulose (CMC) 95 % of control and 91 % of control | dose: 120.0 mg/kg/injection, schedule: Q01DX Z (ip), vehicle: carboxymethylcellulose (CMC) 101 % of control and 88 % of control | dose: 120.0 mg/kg/injection, schedule: Q01DX Z (oral), vehicle: carboxymethylcellulose (CMC) 96 % of control | dose: 240.0 mg/kg/injection, schedule: Q01DX Z (ip), vehicle: carboxymethylcellulose (CMC) 90 % of control | dose: 240.0 mg/kg/injection, schedule: Q01DX Z (oral), vehicle: carboxymethylcellulose (CMC) 100 % of control | dose: 480.0 mg/kg/injection, schedule: Q01DX Z (oral), vehicle: carboxymethylcellulose (CMC) 105 % of control | dose: 960.0 mg/kg/injection, schedule: Q01DX Z (oral), vehicle: carboxymethylcellulose (CMC) 102 % of control

Nc1nc(N)c2[nH]c(CO)nc2n1
inactive: dose: 75.0 mg/kg/injection, schedule: Q01DX001 (ip), vehicle: carboxymethylcellulose (CMC) 110 % of control | dose: 150.0 mg/kg/injection, schedule: Q01DX001 (ip), vehicle: carboxymethylcellulose (CMC) 97 % of control | dose: 300.0 mg/kg/injection, schedule: Q01DX001 (ip), vehicle: carboxymethylcellulose (CMC) 105 % of control

Cc1ccccc1/C=C1\CC(C)(C)c2ccccc2C1=O
inactive: [14] 105 % of control | [9] 95 % of control | [15] 97 % of control | [11] 95 % of control | [16] 97 % of control | [13] 97 % of control

Cc1ccc(N(C=O)N=O)cc1
inactive: [5] 101 % of control | [6] 98 % of control

COc1ccc(NC(=O)Nc2ccc(SC)cc2)c(Cl)c1
inactive: [14] 107 % of control | [15] 93 % of control | [16] 104 % of control

CCOC(=O)CCCN(c1ccccc1C(=O)OC)S(=O)(=O)c1ccc(C)cc1
inactive: [17] 97 % of control | [18] 94 % of control | [19] 103 % of control

[CH3][Sn]1([CH3])[c]2ccccc2Oc2cccc[c]21
inactive: dose: 100.0 mg/kg/injection, schedule: Q01DX001 (ip), vehicle: other 92 % of control | dose: 200.0 mg/kg/injection, schedule: Q01DX001 (ip), vehicle: other 97 % of control | dose: 400.0 mg/kg/injection, schedule: Q01DX001 (ip), vehicle: other 87 % of control

CC(C)C(C(N)=O)N1C(=O)C2C3CCC(C3)C2C1=O (stereo unspecified)
inactive: [1] 98 % of control | [2] 95 % of control | [3] 107 % of control

O=[N+]([O-])c1ccc(N2CCCC2)c([N+](=O)[O-])c1
inactive: [14] 101 % of control | [9] 95 % of control | [15] 93 % of control | [11] 92 % of control | [16] 97 % of control | [13] 99 % of control

CCOc1ccccc1NC(=O)COc1ccc(Cl)cc1
inactive: [14] 98 % of control | [9] 90 % of control | [15] 103 % of control | [11] 101 % of control | [16] 97 % of control | [13] 108 % of control

COc1ccccc1CN1CCCN(Cc2ccccc2OC)C1c1ccc(N(C)C)cc1
inactive: [4] 98 % of control | [5] 98 % of control | [6] 95 % of control | [7] 88 % of control

COc1ccc(C(N)=S)c2ccccc12
inactive: [8] 105 % of control | [10] 102 % of control | [12] 102 % of control

CCOP(=O)(NCCc1ccccc1)OCC
inactive: [20] 109 % of control | [17] 109 % of control | [18] 101 % of control

CC1([N+](=O)[O-])COP(=O)(Nc2ccccc2F)OC1 (stereo unspecified)
inactive: [17] 101 % of control | [18] 95 % of control | [19] 104 % of control

CCC1c2ccc3cc(OC)ccc3c2C(=O)C1CC(=O)O (stereo unspecified)
inactive: [5] 93 % of control | [6] 107 % of control

O=c1cc[nH]c2c(Cl)cccc12
inactive: [20] 109 % of control | [17] 109 % of control | [18] 114 % of control | [19] 110 % of control

O=C(NC(Cc1ccccc1)C(=O)CCl)OCc1ccccc1 (stereo unspecified)
inactive: dose: 25.0 mg/kg/injection, schedule: Q01DX009 (ip), vehicle: saline with Tween-80 115 % of control | dose: 25.0 mg/kg/injection, schedule: Q04DX002 (ip), vehicle: other 107 % of control | dose: 50.0 mg/kg/injection, schedule: Q01DX009 (ip), vehicle: saline with Tween-80 95 % of control | dose: 50.0 mg/kg/injection, schedule: Q04DX002 (ip), vehicle: other 93 % of control | dose: 100.0 mg/kg/injection, schedule: Q04DX002 (ip), vehicle: other 104 % of control | [21] 108 % of control

O=C(Nc1cc(C(F)(F)F)ccc1Cl)Nc1cc(Cl)c(Oc2ccc(Cl)cc2)cc1S(=O)(=O)O
inactive: [21] 105 % of control | dose: 200.0 mg/kg/injection, schedule: Q04DX003 (ip), vehicle: saline sonified 100 % of control

CCSc1nc(N)c(C#N)cc1C#N
inactive: [14] 105 % of control | [9] 88 % of control | [15] 95 % of control | [11] 95 % of control

COC1=C(N)C(=O)c2ncccc2C1=O
inactive: dose: 4.0 mg/kg/injection, schedule: Q01DX009 (ip), vehicle: acetone 105 % of control | dose: 8.0 mg/kg/injection, schedule: Q01DX009 (ip), vehicle: acetone 105 % of control | dose: 16.0 mg/kg/injection, schedule: Q01DX009 (ip), vehicle: acetone 102 % of control
